According to patent EP0327365B1, “Improvements in or relating to modified haptens useful as imaging and therapeutic agents” (HYBRITECH INCORPORATED, priority 1988, dated 1989):

Legend:
[1] = tested on: monoclonal antibody CHA255; test: Determination of hapten-antibody dissociation rates; type: binding, BALB/c mice; conditions: 22°C; indium complex of hapten from CHA255 after 100 fold excess of indium-115 loaded hapten
Experimental: Hapten-antibody dissociation rates were determined using monoclonal antibody CHA255, prepared as described in Example 2A, by measuring the quantity of ¹¹¹In³⁺ chelate released from the antibody hapten complex as a function of time after addition of a 100 fold excess (over antibody binding sites) of indium-115 loaded hapten. Thus, for each hapten, a 700 »l solution was prepared containing: antibody at a concentration of 160 nM; indium loaded hapten, trace labeled with ¹¹¹In (total concentration = 160 nM); normal human serum albumin at a total concentration of 1.5 mg/mL; and isotonic phosphate buffered saline, (10 mM PO₄²⁻, 150 mM NaCl, pH 7.2). Indium-115 loaded hapten was added to a final Concentration of […]. Reactions were stirred by placing the sample containers ir a rack mounted on a vortexer head.
At various times after addition of the excess hapten, […] portions of the reaction solutions were transferred to Centrifree tubes (Amicon Corperation, Danvers, Massachusetts) and centrifuged at 1500xg for eight to ten minutes. The reaction time was taken to be the time between addition of the excess hapten and the time the centrifuge reached the desired velocity. Six timepoints, each in duplicate, were obtained over a range of about two reaction half-lives for each rate constant determination. A 200 »l portion from each centrifuged and uncentrifuged solution was then counted for ¹¹¹In. The relative concentration of free hapten was taken to be the ratio of counts in the centrifuged solution to the uncentrifuged solution at each timepoint. Times were recorded to the nearest tenth of a minute.
Room temperature rate constants were measured without the aid of a constant temperature bath. The ambient temperature remained at 22°±1 C.
Rate constants and standard deviations were obtained from a plot of the logarithm of relative complex concentration vs. time. Data were analyzed using the linear regression module of the RS/1 Program (BBN Software Products Corporation, Cambridge, Massachusetts).
Control samples were included in each experiment to determine: A) that the initial condition of 100% of labeled hapten bound to antibody was met, and B) that in the absence of antibody, 100% of counts were able to penetrate the Centrifree membrane. […]

T-380 tumors = test: Hapten biodistribution, premix protocol with bifunctional antibody ECH037.2; type: in vivo, nude mice; set-up: TOTAL RECOV: unit not given here; conditions: for % DOSE PER GRAM, KIDNEY / % DOSE PER GRAM, LIVER / % DOSE PER GRAM, TUMOR / FECES / TOTAL RECOV / URINE / % DOSE PER GRAM, BLOOD / TUMOR/BLOOD: premix with 20 µg ECH037.2; for % DOSE PER GRAM, BLOOD: 111In-labeled hapten i.v.; for TUMOR/BLOOD: ratio; for Percent Injected Dose in Feces: premix protocol (Table VI); for %Dose per Gram, Blood / %Dose per Gram, Tumor: premix with 20 µg ECH037.2 (Table VIII)
Experimental: Two protocols were used for examining the biodistribution of the derivatized haptens in the presence of the bifunctional antibody ECH037.2. In a premix protocol, ECH037.2 and the derivatized hapten were combined prior to injection in the animals. In the prelocalization protocol, ECH037.2 was injected into the animals, and the antibody was allowed to prelocalize for 24 hours prior to injection of the radiolabeled hapten.
Biodistribution studies were performed in nude mice carrying subcutaneous implants of the human colon carcinoma cell line T-380 which expresses the carcinoembryonic antigen (CEA) recognized by ECH037.2. Briefly, Balb/C Nu/Nu mice were injected subcutaneously with a minced preparation of T-380 tumor implants and maintained for approximately two weeks, or until the tumor implant had grown to a size of approximately 0.5 grams as described by Hagan, P.L., et al. J. Nuc. Med., 26 1418-1423 (1985). Mice were kept in a sterile environment to prevent complications due to bacterial or viral infections. Biodistributions were performed as described by Halpern, S., et al., Cancer Res. 43, 5347-5355 (1983). Briefly, the radiolabeled haptens were injected intravenously in […], and the pharmacokinetics were evaluated at several time points post-injection. At these times, mice were sacrificed and weighed. Organs were removed, their weight recorded, and each organ was then washed in sterile PBS, pH 7.0, and fixed in formalin solution. Samples of blood, urine and feces also were collected and their weight similarly recorded. The organs, or a portion thereof, were transferred to clean tubes and their radioactive content was determined in a well-type gamma-counter.
Relative radioactive content of each organ was expressed as a percentage of injected dose per organ.
To indium-label the haptens of the invention 10 »l of 0.1 mM ligand was combined with X »l of ¹¹¹InCl₃ (in 50 mM HCl) and (x+10) »l of 0.26 M ammonium citrate, pH 6.0. X is calculated by the following equation: X = (200 »Ci)/(A »Ci/»l) [formula] where A is the specific activity of the ¹¹¹In.
The labeling was done in an acid-washed microfuge tube. After combining all of the components above, the solution was vortexed and allowed to stand at room temperature for 15 minutes.
Incorporation of the ¹¹¹In into the chelating agent was determined by TLC on silica in a methanol/aqueous ammonium acetate solvent system as described by Meares, et al. (Anal. Biochem., 142, 68-75 (1984)). Greater than 95% incorporation of the radioactivity into the chelate was required for the sample to be submitted for a biodistribution assay.
Prior to injection the ¹¹¹In-labeled hapten was diluted into freshly prepared isotonic sodium bicarbonate (1.39% w/v) containing 1 mg/ml normal human serum albumin (Buminate, 25% solution, Travenol Laboratories, Glendale, California) to which the bifunctional antibody had been added. The final composition of the solution was 0.2 mg/ml ECH037.2, 0.5 »M chelate, 0.1 »Ci/»l ¹¹¹In, all in a volume of 2.0 ml. For the biodistribution studies, 100 »l of the solution was injected into the tail vein of each animal.

Row | Compound | % DOSE PER GRAM, KIDNEY (T-380 tumors; 24 hours) [% DOSE PER GRAM] | % DOSE PER GRAM, LIVER (T-380 tumors; 24 hours) [% DOSE PER GRAM] | % DOSE PER GRAM, TUMOR (T-380 tumors; 24 hours) [% DOSE PER GRAM] | FECES (T-380 tumors; 24 hours) | TOTAL RECOV (T-380 tumors; 24 hours) | URINE (T-380 tumors; 24 hours) | % DOSE PER GRAM, BLOOD (T-380 tumors; 24 hours) [% DOSE PER GRAM] | TUMOR/BLOOD (T-380 tumors; 24 hours) | Percent Injected Dose in Feces (T-380 tumors; 24 hrs.) [Percent Injected Dose] | % DOSE PER GRAM, KIDNEY (T-380 tumors; 48 hours) [% DOSE PER GRAM] | % DOSE PER GRAM, LIVER (T-380 tumors; 48 hours) [% DOSE PER GRAM] | % DOSE PER GRAM, TUMOR (T-380 tumors; 48 hours) [% DOSE PER GRAM] | FECES (T-380 tumors; 48 hours) | TOTAL RECOV (T-380 tumors; 48 hours) | URINE (T-380 tumors; 48 hours) | % DOSE PER GRAM, BLOOD (T-380 tumors; 48 hours) [% DOSE PER GRAM] | TUMOR/BLOOD (T-380 tumors; 48 hours) | Percent Injected Dose in Feces (T-380 tumors; 48 hrs.) [Percent Injected Dose] | t1/2, Dissociation Half-Lives [1] [h] | also measured
1 | O=C(O)CCCNC(=S)Nc1ccc(CC(CN(CC(=O)O)CC(=O)O)N(CC(=O)O)CC(=O)O)cc1 (centres unmarked) [BATUBE] | 2.5 | 3.3 | 11.5 | 6.9% of total injected dose | 50.8 | 20.0% of total injected dose | 11.8 | 0.97 | 6.9 | 1.5 | 2.0 | 12.1 | 21.1% of total injected dose | 68.3 | 30.4% of total injected dose | 7.9 | 1.53 | 21.1 | 1.24 | 
2 | CCNC(=S)Nc1ccc(CC(CN(CC(=O)O)CC(=O)O)N(CC(=O)O)CC(=O)O)cc1 (centres unmarked) [ETUBE] | 2.4 | 3.5 | 8.0 | 5.9% of total injected dose | 52.2 | 25.8% of total injected dose | 10.4 | 0.77 | 6.7 | 1.2 | 2.4 | 10.4 | 15.2% of total injected dose | 66.6 | 36.0% of total injected dose | 5.9 | 1.76 | 15.2 | 1.21 | amount of hapten in the tumor (T-380 tumors; 24 hrs., premix protocol): 8.0 percent injected dose/gram; injected material excreted in the feces (T-380 tumors; 48 hrs. post injection, premix protocol): 15.2% of the injected material; amount of hapten in the tumor (T-380 tumors; 48 hrs., premix protocol): 10.4 percent injected dose/gram
3 | O=C(O)CN(CC(=O)O)CC(Cc1ccc(NC(=S)NCc2ccccc2)cc1)N(CC(=O)O)CC(=O)O (centres unmarked) [BETUBE] | 2.5 | 2.7 | 8.0 | 17.4% of total injected dose | 44.6 | 8.4% of total injected dose | 9.0 | 0.89 | 17.4 | 1.5 | 1.9 | 7.5 | 29.0% of total injected dose | 54.2 | 12.0% of total injected dose | 5.5 | 1.36 | 29.0 | 1.57 | 

Second part, led by results:

Row | % DOSE PER GRAM, KIDNEY (T-380 tumors; 24 hours) [% DOSE PER GRAM] | % DOSE PER GRAM, LIVER (T-380 tumors; 24 hours) [% DOSE PER GRAM] | % DOSE PER GRAM, TUMOR (T-380 tumors; 24 hours) [% DOSE PER GRAM] | FECES (T-380 tumors; 24 hours) | TOTAL RECOV (T-380 tumors; 24 hours) | URINE (T-380 tumors; 24 hours) | % DOSE PER GRAM, BLOOD (T-380 tumors; 24 hours) [% DOSE PER GRAM] | TUMOR/BLOOD (T-380 tumors; 24 hours) | Percent Injected Dose in Feces (T-380 tumors; 24 hrs.) [Percent Injected Dose] | % DOSE PER GRAM, KIDNEY (T-380 tumors; 48 hours) [% DOSE PER GRAM] | % DOSE PER GRAM, LIVER (T-380 tumors; 48 hours) [% DOSE PER GRAM] | % DOSE PER GRAM, TUMOR (T-380 tumors; 48 hours) [% DOSE PER GRAM] | FECES (T-380 tumors; 48 hours) | TOTAL RECOV (T-380 tumors; 48 hours) | URINE (T-380 tumors; 48 hours) | % DOSE PER GRAM, BLOOD (T-380 tumors; 48 hours) [% DOSE PER GRAM] | TUMOR/BLOOD (T-380 tumors; 48 hours) | Percent Injected Dose in Feces (T-380 tumors; 48 hrs.) [Percent Injected Dose] | Compound | t1/2, Dissociation Half-Lives [1] [h] | also measured
4 | 4.0 | 3.1 | 8.5 | 5.9% of total injected dose | 66.3 | 42.5% of total injected dose | 5.9 | 1.44 | 5.9 | 2.5 | 1.9 | 8.1 | 12.9% of total injected dose | 74.1 | 52.6% of total injected dose | 2.0 | 4.0 | 12.9 | NCCNC(=S)Nc1ccc(CC(CN(CC(=O)O)CC(=O)O)N(CC(=O)O)CC(=O)O)cc1 (centres unmarked) [NUBE] | 0.76 | %Dose per Gram, Blood (T-380 tumors; 24 hrs. post-injection): 5.8 %Dose per Gram; %Dose per Gram, Tumor (T-380 tumors; 24 hrs. post-injection): 11.7 %Dose per Gram; %Dose per Gram, Blood (T-380 tumors; 48 hrs. post-injection): 3.3 %Dose per Gram; %Dose per Gram, Tumor (T-380 tumors; 48 hrs. post-injection): 12.2 %Dose per Gram; %Dose per Gram, Blood (T-380 tumors; 72 hrs. post-injection): 0.7 %Dose per Gram; %Dose per Gram, Tumor (T-380 tumors; 72 hrs. post-injection): 10.5 %Dose per Gram
5 | 2.7 | 3.4 | 9.0 | 10.6% of total injected dose | 52.0 | 14.2% of total injected dose | 13.0 | 0.70 | 10.6 | 1.5 | 2.4 | 12.0 | 17.8% of total injected dose | 63.1 | 26.9% of total injected dose | 8.0 | 1.49 | 17.8 | O=C(O)CCCC(=O)NCCNC(=S)Nc1ccc(CC(CN(CC(=O)O)CC(=O)O)N(CC(=O)O)CC(=O)O)cc1 (centres unmarked) [GNUBE] | 1.65 | 
